Data published in PMC11301756, “The crystal structure of Shethna protein II (FeSII) from Azotobacter vinelandii suggests a domain swap” (Acta Crystallographica Section D: Structural Biology, 2024).

T1: FeSII (Shethna protein II) (Azotobacter vinelandii, UniProt Q44501)
T1 construct: synthetic gene in pRSET-A, no tag, expressed in E. coli KRX; about 13 kDa; dimer in solution; prepared aerobically (oxidized)
T1 sequence (Q44501 2-122 limits assumed): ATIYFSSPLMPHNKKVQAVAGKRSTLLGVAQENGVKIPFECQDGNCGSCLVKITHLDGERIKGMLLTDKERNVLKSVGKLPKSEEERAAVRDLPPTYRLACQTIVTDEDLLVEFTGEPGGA


Assays:
[1] = target: T1, FeSII (Shethna protein II); assay: X-ray crystal structure (Fe-SAD); assay type: binding; details: intrinsic cluster, protein prepared and crystallized aerobically (oxidized); pH 8.0; five copies in asymmetric unit, one closed and four open (domain-swapped)
[2] = target: the molecule itself; assay: crystal structure; FeSII alone, hanging-drop vapour diffusion, 0.1 M HEPES pH 8.0, 0.2 M sodium citrate, 24% PEG 3350, 2% 1-butanol, 40 mg/ml FeSII; P2(1)2(1)2, 1.65 Å, Fe-SAD; dimers between chains and crystallographic symmetry mates

Row | Molecule | X-ray crystal structure (Fe-SAD), 1.65 A [1] | binding result [2]
1 | [S]1[Fe][S][Fe]1 [2Fe–2S cluster] | In chain E (salmon) in the crystal, the lid helix from chain E covers the iron–sulfur cluster | –
2 | Shethna protein II (FeSII) from Azotobacter vinelandii (natural protein, UniProt Q44501 1-122, looked up, FeSII (Shethna protein II), adrenodoxin-type 2Fe-2S ferredoxin of Azotobacter vinelandii, locus AVIN_39700; synthetic gene in pRSET-A with no tag, amplified with primers from the start codon (ATGGCGACGATCTATTTCAGCAGC) to the stop codons; Carries a 2Fe-2S cluster; prepared aerobically (oxidized); Five copies in the asymmetric unit of the crystal; also called FeSII protein; source: E. coli …) MATIYFSSPLMPHNKKVQAVAGKRSTLLGVAQENGVKIPFECQDGNCGSCLVKITHLDGERIKGMLLTDKERNVLKSVGKLPKSEEERAAVRDLPPTYRLACQTIVTDEDLLVEFTGEPGGA | – | binds
